From PubChem BioAssay (NCI)
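Five concentrations, 48 hours, 96-well plates. The concentration for full growth arrest is given as TGI.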

Columns and labels:
Experiment in all cases: DTP human tumour cell line panel, 48 h
HS 578T breast = test system: HS 578T breast
A549 NSCLC = test system: A549 NSCLC
K-562 leukemia = test system: K-562 leukemia
SNB-75 CNS = test system: SNB-75 CNS
MDA-MB-231 breast = test system: MDA-MB-231 breast
NCI-H23 lung = test system: NCI-H23 lung
MOLT-4 leukemia = test system: MOLT-4 leukemia
SK-MEL-5 melanoma = test system: SK-MEL-5 melanoma
786-0 renal = test system: 786-0 renal
SW-620 colon = test system: SW-620 colon
MDA-MB-435 = test system: MDA-MB-435
HCT-15 colon = test system: HCT-15 colon
NCI-H522 lung = test system: NCI-H522 lung

Row | SMILES | TGI (HS 578T breast) | TGI (A549 NSCLC) | TGI (K-562 leukemia) | TGI (SNB-75 CNS) | TGI (MDA-MB-231 breast) | TGI (NCI-H23 lung) | TGI (MOLT-4 leukemia) | TGI (SK-MEL-5 melanoma) | TGI (786-0 renal) | TGI (SW-620 colon) | TGI (MDA-MB-435) | TGI (HCT-15 colon) | TGI (NCI-H522 lung)
1 | O=C(CCl)Nc1ccc(-c2nc3ccccc3s2)cc1 | 20.1 µM | 21.8 µM | 4.56 µM | 11 µM | 16.8 µM | 10.2 µM | 12.8 µM | 3.17 µM | 4.62 µM | 5.07 µM | 12.2 µM | 6.65 µM | 3.64 µM
2 | O=C(N/N=C1\CCc2ccccc21)N/N=C1\CCc2ccccc21 | > 100 µM | > 100 µM | > 100 µM | > 100 µM | 29.4 µM | > 100 µM | > 100 µM | > 100 µM | > 100 µM | > 100 µM | > 100 µM | > 100 µM | > 100 µM
3 | Nc1nc(Cl)c(N)c(NCC2(CO)CC(O)C2)n1 (configuration not stated) | > 100 µM | > 100 µM | > 100 µM | > 100 µM | > 100 µM | > 100 µM | > 100 µM | > 100 µM | > 100 µM | > 100 µM | > 100 µM | > 100 µM | > 100 µM
4 | COc1cc([C@@H]2c3cc4c(cc3[C@@H](N=Cc3ccc(C(=O)O[C@H]5C[C@H]6OC[C@@]6(OC(C)=O)[C@H]6[C@H](OC(=O)c7ccccc7)[C@]7(O)C[C@H](OC(=O)[C@H](OC(=O)c8ccc(C=N[C@@H]9c%10cc%11c(cc%10[C@@H](c%10cc(OC)c(O)c(OC)c%10)[C@H]%10C(=O)OC[C@@H]%109)OCO%11)cc8)[C@@H](NC(=O)c8ccccc8)c8ccccc8)C(C)=C([C@@H](OC(C)=O)C(=O)[C@]56C)C7(C)C)cc3)C3COC(=O)C32)OCO4)cc(C)c1O (some centres not stated) | > 50 µM | > 50 µM | > 50 µM | > 50 µM | > 43.4 µM | > 50 µM | > 50 µM | > 50 µM | > 50 µM | > 50 µM | 9.32 µM | > 50 µM | > 50 µM
5 | [N-]=[N+]=NC1=C(N=[N+]=[N-])c2cccc3cccc(c23)C1=O | > 100 µM | > 100 µM | > 100 µM | > 100 µM | > 100 µM | > 100 µM | > 100 µM | > 100 µM | > 100 µM | > 100 µM | > 100 µM | > 100 µM | > 100 µM
6 | O=C1C2=Cc3ccccc3CCN2c2ccc([N+](=O)[O-])cc21 | > 100 µM | > 100 µM | > 100 µM | > 100 µM | > 100 µM | > 100 µM | > 100 µM | > 100 µM | > 100 µM | > 100 µM | > 100 µM | > 100 µM | > 100 µM
7 | CC1(c2nc3ccccc3[nH]2)CCC(CO)C(C)(C)O1 (configuration not stated) | > 100 µM | > 100 µM | > 100 µM | > 100 µM | > 100 µM | > 100 µM | > 100 µM | > 100 µM | > 100 µM | > 100 µM | > 100 µM | > 100 µM | > 100 µM
8 | Cc1oc2nc(N(C)C)n3c(C)nnc3c2c1C | > 100 µM | > 100 µM | > 100 µM | > 100 µM | > 100 µM | > 100 µM | > 100 µM | > 100 µM | > 100 µM | > 100 µM | > 100 µM | > 100 µM | > 100 µM
9 | O=C1C(c2c(O)n(-c3ccccc3)c3ccccc23)=Nc2ccccc21 | > 100 µM | > 100 µM | > 100 µM | 40.4 µM | 81.5 µM | > 100 µM | > 100 µM | 69.8 µM | 36.7 µM | > 100 µM | > 100 µM | > 100 µM | > 100 µM
